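Following 48 hours of exposure in 96-well plates, responses at five concentrations were used to interpolate endpoints linearly. TGI denotes the concentration required for complete inhibition of growth.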
Test system: P388 leukemia
Assay: NCI tumour cell line growth inhibition, 48 h

CCCCS(=N)(=O)CC[C@H](N)C(=O)O (stereo partly specified)
TGI: 5 mM
